Numbers after ± are expanded uncertainties.
Test: molar heat capacity at constant pressure
Conditions: 101.33 kPa, Crystal, relaxation calorimetry

[Al] [aluminum]
Conditions	molar heat capacity at constant pressure [J/K/mol]
1.863 K	0.002602 ± 0.00014
1.936 K	0.002749 ± 0.00015
2.01 K	0.002882 ± 0.00015
2.089 K	0.002997 ± 0.00016
2.173 K	0.003177 ± 0.00017
2.264 K	0.003323 ± 0.00018
2.36 K	0.003531 ± 0.00019
2.459 K	0.003773 ± 0.0002
2.562 K	0.003901 ± 0.00021
2.677 K	0.00413 ± 0.00022
2.795 K	0.004373 ± 0.00023
2.915 K	0.004596 ± 0.00025
3.042 K	0.004765 ± 0.00025
3.177 K	0.005056 ± 0.00027
3.318 K	0.005413 ± 0.00029
3.464 K	0.005679 ± 0.0003
3.615 K	0.005941 ± 0.00032
3.776 K	0.006361 ± 0.00034
3.943 K	0.00681 ± 0.00036
4.119 K	0.007189 ± 0.00038
4.301 K	0.007838 ± 0.00042
4.492 K	0.008275 ± 0.00044
4.687 K	0.008914 ± 0.00048
4.896 K	0.009549 ± 0.00051
5.111 K	0.01026 ± 0.00055
5.34 K	0.01095 ± 0.00059
5.574 K	0.01158 ± 0.00062
5.822 K	0.01268 ± 0.00068
6.08 K	0.01359 ± 0.00073
6.349 K	0.01458 ± 0.00078
6.636 K	0.01573 ± 0.00084
6.925 K	0.01714 ± 0.00092
7.23 K	0.01866 ± 0.001
7.547 K	0.02044 ± 0.0011
7.883 K	0.02258 ± 0.0012
8.234 K	0.02467 ± 0.0013
8.595 K	0.02641 ± 0.0014
8.981 K	0.02942 ± 0.0016
9.378 K	0.03231 ± 0.0017
9.795 K	0.03497 ± 0.0019
10.24 K	0.03897 ± 0.0016
10.71 K	0.04317 ± 0.0018
11.19 K	0.04767 ± 0.0019
11.69 K	0.05284 ± 0.0021
12.21 K	0.05868 ± 0.0024
12.75 K	0.06538 ± 0.0027
13.31 K	0.07304 ± 0.003
13.9 K	0.08149 ± 0.0033
14.52 K	0.09112 ± 0.0037
15.16 K	0.1021 ± 0.0042
15.66 K	0.1115 ± 0.0045
17.12 K	0.1425 ± 0.0058
18.7 K	0.1842 ± 0.0075
20.44 K	0.24 ± 0.0098
22.34 K	0.317 ± 0.013
24.42 K	0.423 ± 0.017
26.67 K	0.5669 ± 0.023
29.14 K	0.7607 ± 0.031
31.85 K	1.02 ± 0.041
34.81 K	1.356 ± 0.055
38.05 K	1.784 ± 0.072
41.58 K	2.319 ± 0.094
45.44 K	2.967 ± 0.12
49.66 K	3.728 ± 0.15
54.27 K	4.615 ± 0.19
59.31 K	5.613 ± 0.23
64.81 K	6.718 ± 0.27
70.81 K	7.909 ± 0.32
77.38 K	9.17 ± 0.37
84.53 K	10.51 ± 0.43
92.37 K	11.83 ± 0.48
100.93 K	13.12 ± 0.53
111.01 K	14.49 ± 0.59
121.1 K	15.74 ± 0.64
131.22 K	16.79 ± 0.68
141.3 K	17.72 ± 0.72
151.36 K	18.54 ± 0.75
161.49 K	19.25 ± 0.78
171.61 K	19.88 ± 0.81
181.69 K	20.47 ± 0.83
191.79 K	21.01 ± 0.85
201.89 K	21.48 ± 0.87
211.98 K	21.89 ± 0.89
222.08 K	22.24 ± 0.9
232.18 K	22.58 ± 0.92
242.28 K	22.91 ± 0.93
252.36 K	23.16 ± 0.94
262.46 K	23.41 ± 0.95
272.56 K	23.64 ± 0.96
282.64 K	23.88 ± 0.97
292.73 K	24.08 ± 0.98
302.81 K	24.25 ± 0.98

O=C(O)c1ccccc1 [benzoic acid]
Conditions	molar heat capacity at constant pressure [J/K/mol]
1.855 K	0.01205 ± 0.0013
1.92 K	0.01371 ± 0.0015
1.999 K	0.01544 ± 0.0017
2.082 K	0.0168 ± 0.0018
2.168 K	0.01932 ± 0.0021
2.26 K	0.02218 ± 0.0024
2.357 K	0.02464 ± 0.0026
2.464 K	0.0282 ± 0.003
2.568 K	0.03421 ± 0.0036
2.679 K	0.03716 ± 0.004
2.796 K	0.04141 ± 0.0044
2.918 K	0.04667 ± 0.005
3.044 K	0.04829 ± 0.0051
3.179 K	0.0605 ± 0.0064
3.32 K	0.07095 ± 0.0075
3.465 K	0.07898 ± 0.0084
3.617 K	0.08814 ± 0.0094
3.776 K	0.103 ± 0.011
3.942 K	0.1157 ± 0.012
4.118 K	0.1296 ± 0.014
4.303 K	0.1534 ± 0.016
4.491 K	0.172 ± 0.018
4.686 K	0.1966 ± 0.021
4.893 K	0.2248 ± 0.024
5.109 K	0.2491 ± 0.026
5.336 K	0.3026 ± 0.032
5.572 K	0.3324 ± 0.035
5.823 K	0.382 ± 0.041
6.077 K	0.452 ± 0.048
6.345 K	0.5096 ± 0.054
6.625 K	0.5803 ± 0.062
6.92 K	0.6878 ± 0.073
7.225 K	0.7916 ± 0.084
7.545 K	0.8991 ± 0.095
7.878 K	1.031 ± 0.11
8.227 K	1.197 ± 0.13
8.596 K	1.338 ± 0.14
8.976 K	1.541 ± 0.16
9.373 K	1.763 ± 0.19
9.789 K	1.997 ± 0.21
10.24 K	2.278 ± 0.24
10.71 K	2.579 ± 0.27
11.18 K	2.902 ± 0.31
11.68 K	3.262 ± 0.35
12.2 K	3.647 ± 0.39
12.74 K	4.074 ± 0.43
13.3 K	4.535 ± 0.48
13.89 K	5.046 ± 0.54
14.5 K	5.598 ± 0.59
15.14 K	6.188 ± 0.33
15.64 K	6.658 ± 0.36
17.1 K	8.085 ± 0.43
18.69 K	9.716 ± 0.52
20.41 K	11.56 ± 0.62
22.32 K	13.61 ± 0.73
24.4 K	15.91 ± 0.85
26.66 K	18.4 ± 0.98
29.13 K	20.97 ± 1.1
31.84 K	23.77 ± 1.3
34.8 K	26.64 ± 1.4
38.03 K	29.6 ± 1.6
41.56 K	32.79 ± 1.8
45.42 K	35.88 ± 1.9
49.63 K	39.11 ± 2.1
54.24 K	42.18 ± 2.3
59.28 K	45.06 ± 2.4
64.78 K	47.92 ± 2.6
70.79 K	50.65 ± 2.7
77.36 K	53.75 ± 2.9
84.51 K	57.18 ± 3.1
92.38 K	61.03 ± 3.3
100.95 K	64.26 ± 3.4
110.98 K	67.64 ± 3.6
121.09 K	71.22 ± 3.8
131.21 K	75.19 ± 4
141.28 K	78.86 ± 4.2
151.34 K	82.29 ± 4.4
161.49 K	85.76 ± 4.6
171.59 K	90.18 ± 4.8
181.67 K	95.02 ± 5.1
191.74 K	98.7 ± 5.3
201.82 K	102.27 ± 5.5
211.92 K	106.37 ± 5.7
222 K	112.07 ± 6
232.09 K	117.31 ± 6.3
242.17 K	119.6 ± 6.4
252.25 K	124.22 ± 6.6
262.35 K	128.72 ± 6.9
272.46 K	133 ± 7.1
282.54 K	137.8 ± 7.4
292.59 K	141.72 ± 7.6
302.66 K	146.37 ± 7.8
